In PMC11352409, “Subtype-Specific Ligand Binding and Activation Gating in Homomeric and Heteromeric P2X Receptors” (Biomolecules, 2024):

Key:
Format in all cases: cell-based
[1] = target: T1, human P2X3 receptors (Homo sapiens, UniProt P56373); test: Whole-cell patch-clamp concentration-activation, HEK293 cells stably expressing hP2X3; details: for Hill: hP2X3, Hill coefficient of concentration-activation fit; for Effect (Fold in ATP Potency): hP2X3, relative to ATP; for Effect (Fold in ATP Efficacy): hP2X3, relative to current at 100 µM ATP; for EC50: hP2X3, whole-cell, -50 mV, divalent-cation-free bath with 10 mM EGTA, normalised to 100 µM ATP
T1 construct: expressed in transfected cells
T1 sequence (P56373 1-397): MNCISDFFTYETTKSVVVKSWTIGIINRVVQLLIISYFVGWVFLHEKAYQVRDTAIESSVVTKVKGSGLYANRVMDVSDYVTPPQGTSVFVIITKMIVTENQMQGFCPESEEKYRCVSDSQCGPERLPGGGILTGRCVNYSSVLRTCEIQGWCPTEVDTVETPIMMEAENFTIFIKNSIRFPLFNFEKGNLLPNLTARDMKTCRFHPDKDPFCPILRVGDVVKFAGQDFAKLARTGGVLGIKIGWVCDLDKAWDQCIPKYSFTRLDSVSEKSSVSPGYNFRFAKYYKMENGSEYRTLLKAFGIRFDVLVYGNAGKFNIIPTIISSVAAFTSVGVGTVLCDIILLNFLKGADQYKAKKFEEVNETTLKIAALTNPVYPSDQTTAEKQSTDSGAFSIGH
Method: (§1) Human P2X receptors were expressed from HEK293 cell lines containing an inducible promoter system (Flp-In-T-REx 293, Invitrogen, Waltham, MA, USA). The used cell lines were: hP2X2 B (RRID: AC line CVCL_D6U1), hP2X3 (RRID: AC line CVCL_D6U3), and hP2X2/3 (RRID: AC line CVCL_D6U2). The cells were cultured in MEM supplemented with non-essential amino acids (Gibco, Waltham, MA, USA), 10% FCS, and antibiotics, according to the manufacturer’s instructions. For stable cell lines, Flp-In-T-REx 293 cells were transfected using the calcium phosphate method with a mixture of plasmids (0.3 µg pcDNA5/FRT/TO P2X gene and 1.5 µg pOG44) and selected for hygromycin resistance. The cells were seeded on glass coverslips for electrophysiological measurements and used 24–48 h after tetracycline induction ([…]).
(§2) Membrane currents were recorded with a standard patch-clamp technique in the whole-cell configuration. The patch pipettes were pulled from borosilicate glass (ID 1.0 mm, OD 2.0 mm; VITROCOM, Mountain Lakes, NJ, USA) using a micropipette puller (P-97, Sutter Instrument, Novato, CA, USA). The pipettes were filled with intracellular solution containing (mM) 142 NaCl, 5 BAPTA, 5 EGTA, and 10 HEPES at pH 7.4. The pipette resistance was from 2.0 to 6.0 MΩ. The bath solution contained (mM) 142 NaCl, 10 EGTA, 10 HEPES, and 10 glucose at pH 7.4. To increase the speed of recovery from the hP2X3 receptors, we additionally used a bath solution containing (mM) 142 NaCl, 10 HEPES, 10 glucose, 2 CaCl2, and 1 MgCl2. The cells were lifted for recording from the chamber bottom by the patch pipette and positioned in front of the outlet of the application pipette.
(§3) Solutions switches were carried out with the application pipette that had three barrels (inner diameter ~600 µm, Warner Instruments) controlled by a step motor (SF-77B, Warner Instruments). The speed of the laminar solution flow out of the barrels was estimated to be 2–5 cm/s. One barrel contained a control solution and another was connected to a solution selector (Vici Valco Instruments), which allowed us to apply different test solutions by exchanging the solution during the interval (60 sec for P2X2 and P2X2/3 receptors, 180 s for P2X3 receptors) of applying the control solution. Cells expressing hP2X3 were washed with 3 Units/mL apyrase for 30 min to remove ATP. To ensure the comparability of the data points between each application, we rinsed hP2X3 with the following solution for 3 min after each ATP application (mM): 142 NaCl, 10 HEPES, 10 glucose, 2 CaCl2, and 1 MgCl2 at pH 7.4. After sufficient recovery, we switched to the bath solution for 10 s and then to the solution of interest. The speed of the switch around a whole cell was estimated to be below 10 ms by switching between different salt solutions.
(§4) The saturation of activation was determined with ATP at 100 µM. The currents were recorded with a HEKA EPC 10 amplifier in combination with the patchmaster software. The sampling rate was 10 kHz and the recordings were on-line filtered at 2.9 kHz using a four-pole Bessel filter. The currents were recorded at a constant holding potential of −50 mV and the series resistance was compensated with the patchmaster software up to 80%.
(§5) The concentration–activation relationships from whole-cell measurements in the HEK293 cells were obtained from the maximum currents during ATP application. These current amplitudes were normalised with respect to the current at saturating ATP (100 µM) and the resulting data points were fitted I/ImaxATP = Amp/(1 + (EC50/[X])^h) (1) with the Origin 2019® software using a non-linear curve fitting routine. I is the actual current amplitude and ImaxATP is the maximum current amplitude at saturating ATP. The amplitude Amp is the efficacy of the respective ligands. EC50 is the ligand concentration generating the half-maximum current and h is the respective Hill coefficient. [X] is the actual concentration of ATP to be tested. […]

[2] = target: T2, human P2X2/3 receptors (Homo sapiens, UniProt P56373+Q9UBL9); test: Whole-cell patch-clamp concentration-activation, HEK293 cells stably expressing hP2X2/3; details: for Hill: hP2X2/3, Hill coefficient of concentration-activation fit; for Effect (Fold in ATP Efficacy): hP2X2/3, relative to current at 100 µM ATP; for EC50: hP2X2/3, whole-cell, -50 mV, divalent-cation-free bath with 10 mM EGTA, normalised to 100 µM ATP
T2 construct: expressed in transfected cells
T2 sequence (Q9UBL9 1-404 isoform Q9UBL9-2): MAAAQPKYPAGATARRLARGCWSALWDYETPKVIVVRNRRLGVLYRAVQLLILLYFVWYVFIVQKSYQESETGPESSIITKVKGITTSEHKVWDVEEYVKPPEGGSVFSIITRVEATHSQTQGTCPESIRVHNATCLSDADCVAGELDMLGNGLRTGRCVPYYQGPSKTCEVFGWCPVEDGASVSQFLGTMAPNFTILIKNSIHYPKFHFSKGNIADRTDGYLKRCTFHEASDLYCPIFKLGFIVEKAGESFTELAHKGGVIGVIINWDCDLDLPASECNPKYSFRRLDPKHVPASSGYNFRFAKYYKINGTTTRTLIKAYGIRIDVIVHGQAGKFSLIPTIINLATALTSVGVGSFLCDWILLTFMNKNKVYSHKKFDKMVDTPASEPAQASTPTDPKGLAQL
T2 sequence (P56373 1-397): T1 sequence (P56373 1-397)
Method: as §1, §2, §3, §4, §5

[3] = target: T3, human P2X2 receptors (Homo sapiens, UniProt Q9UBL9); test: Whole-cell patch-clamp concentration-activation, HEK293 cells stably expressing hP2X2
T3 construct: expressed in transfected cells
T3 sequence (Q9UBL9 1-404 isoform Q9UBL9-2): T2 sequence (Q9UBL9 1-404 isoform Q9UBL9-2)
Method: as §1, §2, §3, §4, §5

Hill [1] | Effect (Fold in ATP Potency) [1] [fold] | Effect (Fold in ATP Efficacy) [1] [fold] | EC50 [1] [nM] | Hill [2] | Effect (Fold in ATP Efficacy) [2] [fold] | Agonist behaviour (current response) ([2]; hP2X2/3, result in words) | EC50 [2] [nM] | Hill ([3]; hP2X2, Hill coefficient of concentration-activation fit) | Effect (Fold in ATP Potency) ([3]; hP2X2, relative to ATP) [fold] | Effect (Fold in ATP Efficacy) ([3]; hP2X2, relative to current at 100 µM ATP) [fold] | Agonist behaviour (current response) ([3]; hP2X2, result in words) | EC50 ([3]; hP2X2, whole-cell, -50 mV, divalent-cation-free bath with 10 mM EGTA, normalised to 100 µM ATP) [nM] | Effect (Fold in ATP Potency) ([2]; hP2X2/3, relative to ATP) [fold] | Elevation of activation level on co-application with ATP ([3]; hP2X2, 10 µM α,βMe-fATP co-applied with 0.1 µM ATP, versus ATP alone) | Effect of ligand alone on current ([3]; hP2X2, α,βMe-fATP alone (10 µM)) | Structure (SMILES)
1.6 ± 0.1 | 0.9 | 0.8 | 1300 ± 100 | 0.9 ± 0.2 | 0.4 | partial agonist | 700 ± 300 | 1.4 ± 0.1 | 0.2 | 1.0 | full agonist | 4600 ± 300 | – | – | – | COCC[N+]1=C(C=CC=C2N(CCCCCC(=O)NCCCCCCSc3nc(N)c4ncn(C5OC(COP(=O)(O)OP(=O)(O)OP(=O)(O)O)C(O)C5O)c4n3)c3ccc(S(=O)(=O)O)cc3C2(C)C)C(C)(C)c2cc(S(=O)(=O)[O-])ccc21 (centres unmarked) [fATP, 2-[DY-547P1]-AHT-ATP]
3.5 ± 0.0 | 0.1 | 1.0 | 8100 | 4.4 ± 3.5 | 0.03 | – | 1500 ± 600 | – | – | – | – | – | 1.8 | approximately 55% | no discernible effect | COCC[N+]1=C(C=CC=C2N(CCCCCC(=O)NCCCCCCSc3nc(N)c4ncn(C5OC(COP(=O)(O)CP(=O)(O)OP(=O)(O)O)C(O)C5O)c4n3)c3ccc(S(=O)(=O)O)cc3C2(C)C)C(C)(C)c2cc(S(=O)(=O)[O-])ccc21 (stereo not drawn) [α,βMe-fATP, 2-[DY-547P1]-AHT-α,βMe-ATP]
